Measured values published in paper PMC4991450, “Protein arginine methyltransferase 1 may be involved in pregnane x receptor-activated overexpression of multidrug resistance 1 gene during acquired multidrug resistant” (Oncotarget, 2016).

The compounds below were run against Protein arginine methyltransferase 1 (PRMT1) (Homo sapiens, UniProt Q99873) (assay: Transzyme HMT PRMT1 fluorescence polarization enzyme assay, rescreened at […]).
Type: biochemical

Chain of Protein arginine methyltransferase 1 (PRMT1) (Q99873 whole entry): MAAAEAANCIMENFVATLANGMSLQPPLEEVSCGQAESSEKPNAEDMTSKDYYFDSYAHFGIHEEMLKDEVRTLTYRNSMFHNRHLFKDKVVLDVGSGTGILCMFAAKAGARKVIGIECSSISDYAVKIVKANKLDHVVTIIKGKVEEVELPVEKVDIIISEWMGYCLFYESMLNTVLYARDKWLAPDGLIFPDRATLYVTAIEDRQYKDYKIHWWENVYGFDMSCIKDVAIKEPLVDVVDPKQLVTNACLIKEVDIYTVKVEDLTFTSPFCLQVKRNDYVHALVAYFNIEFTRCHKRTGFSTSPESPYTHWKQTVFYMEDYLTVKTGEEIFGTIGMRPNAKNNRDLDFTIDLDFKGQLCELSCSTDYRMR

Row | Compound | Transzyme HMT PRMT1 fluorescence polarization enzyme assay, rescreened at 0-100
1 | CCOC(=O)C1=C(C)NC(C)=C(C(=O)OC)C1c1cccc(Cl)c1Cl (centres unmarked) [felodipline] | Five compounds were found to inhibit PRMT1 activity, including rutin, isoquercitrin, salvianolic acid A (SAA), naproxen, and felodipline
2 | O=c1c(O[C@@H]2O[C@H](CO)[C@@H](O)[C@H](O)[C@H]2O)c(-c2ccc(O)c(O)c2)oc2cc(O)cc(O)c12 [isoquercitrin] | Five compounds were found to inhibit PRMT1 activity, including rutin, isoquercitrin, salvianolic acid A (SAA), naproxen, and felodipline
3 | COc1ccc2cc([C@H](C)C(=O)O)ccc2c1 [naproxen] | Five compounds were found to inhibit PRMT1 activity, including rutin, isoquercitrin, salvianolic acid A (SAA), naproxen, and felodipline
4 | C[C@@H]1O[C@@H](OC[C@H]2O[C@@H](Oc3c(-c4ccc(O)c(O)c4)oc4cc(O)cc(O)c4c3=O)[C@H](O)[C@@H](O)[C@@H]2O)[C@H](O)[C@H](O)[C@H]1O [rutin] | Five compounds were found to inhibit PRMT1 activity, including rutin, isoquercitrin, salvianolic acid A (SAA), naproxen, and felodipline
5 | O=C(/C=C/c1ccc(O)c(O)c1/C=C/c1ccc(O)c(O)c1)O[C@H](Cc1ccc(O)c(O)c1)C(=O)O [salvianolic acid A] | Five compounds were found to inhibit PRMT1 activity, including rutin, isoquercitrin, salvianolic acid A (SAA), naproxen, and felodipline
